Positions of bridges follow the written chain, without caps; N, C: chain ends. Non-standard residues stand in square brackets, D forms with d. Residues, ends and D or L forms follow the SMILES beside them. ξ: configuration not given here. Pro(4S-NH2) = N[C@@H]1CN[C@H](C(=O)O)C1; ξPro(4-NH2) = NC1CNC(C(=O)O)C1
Target: IgG
Test: IgG SPR binding
Conditions: second table, read-out: IgG KD

Compound | Kd [nM]
CC(C)CC1NC(=O)C(Cc2cnc[nH]2)NC(=O)C(Cc2c[nH]c3ccccc23)NC(=O)C(C)NC(=O)C2CSSCC(NC(=O)C(Cc3c[nH]c4ccccc34)NC(=O)C(C(C)C)NC(=O)C(CC(C)C)NC(=O)C(CCC(=O)O)NC(=O)CNC1=O)C(=O)NC(C(C)O)C(=O)N1CCCC1C(=O)N1CC(N)CC1C(=O)NC(CC(N)=O)C(=O)N2 (centres unmarked) [compound 55] (cyclo(GELVWCTP[ξPro(4-NH2)]NCAWHL); disulfide 6-11; configuration not given here) | < 100
CC(C)CC1NC(=O)C(Cc2cnc[nH]2)NC(=O)C(Cc2c[nH]c3ccccc23)NC(=O)C(C)NC(=O)C2CSSCC(NC(=O)C(Cc3c[nH]c4ccccc34)NC(=O)C(C(C)C)NC(=O)C(CC(C)C)NC(=O)C(CCC(=O)O)NC(=O)CNC1=O)C(=O)NC(C(C)O)C(=O)N1CCCC1C(=O)N1CC(N)CC1C(=O)NC(CC(=O)O)C(=O)N2 (centres unmarked) [compound 56] | < 100
CC(C)CC1NC(=O)C(Cc2cnc[nH]2)NC(=O)C(Cc2c[nH]c3ccccc23)NC(=O)C(C)NC(=O)C2CSSCC(NC(=O)C(Cc3c[nH]c4ccccc34)NC(=O)C(C(C)C)NC(=O)C(CC(C)C)NC(=O)C(CCC(=O)O)NC(=O)CNC1=O)C(=O)NC(C(C)O)C(=O)N1CCCC1C(=O)N1CC(N)CC1C(=O)NC(CC(=O)O)C(=O)N2 (centres unmarked) [compound 58] | < 100
CC(C)CC1NC(=O)C(C)NC(=O)CNC(=O)C(CC(C)C)NC(=O)C(Cc2cnc[nH]2)NC(=O)C(Cc2c[nH]c3ccccc23)NC(=O)C(C)NC(=O)C2CSSCC(NC(=O)C(Cc3c[nH]c4ccccc34)NC(=O)C(C(C)C)NC1=O)C(=O)NC(C(C)O)C(=O)N1CCCC1C(=O)N1CC(N)CC1C(=O)NC(CC(=O)O)C(=O)N2 (centres unmarked) [compound 59] (cyclo(GALVWCTP[ξPro(4-NH2)]DCAWHL); disulfide 6-11; configuration not given here) | < 100
CC(C)CC1NC(=O)C(Cc2cnc[nH]2)NC(=O)C(Cc2c[nH]c3ccccc23)NC(=O)C(C)NC(=O)C2CSSCC(NC(=O)C(Cc3c[nH]c4ccccc34)NC(=O)C(C(C)C)NC(=O)C(CC(C)C)NC(=O)C(CCC(N)=O)NC(=O)CNC1=O)C(=O)NC(C(C)O)C(=O)N1CCCC1C(=O)N1CC(N)CC1C(=O)NC(CC(=O)O)C(=O)N2 (centres unmarked) [compound 60] (cyclo(GQLVWCTP[ξPro(4-NH2)]DCAWHL); disulfide 6-11; configuration not given here) | < 100
CC(C)CC1NC(=O)C(Cc2cnc[nH]2)NC(=O)C(Cc2c[nH]c3ccccc23)NC(=O)C(C)NC(=O)C2CSSCC(NC(=O)C(Cc3c[nH]c4cc(Cl)ccc34)NC(=O)C(C(C)C)NC(=O)C(CC(C)C)NC(=O)C(CCC(=O)O)NC(=O)CNC1=O)C(=O)NC(C(C)O)C(=O)N1CCCC1C(=O)N1CC(N)CC1C(=O)NC(CC(=O)O)C(=O)N2 (centres unmarked) [compound 61] | < 100
CC(C)CC1NC(=O)C(Cc2cnc[nH]2)NC(=O)C(Cc2c[nH]c3ccccc23)NC(=O)C(C)NC(=O)C2CSSCC(NC(=O)C(Cc3c[nH]c4ccc(Cl)cc34)NC(=O)C(C(C)C)NC(=O)C(CC(C)C)NC(=O)C(CCC(=O)O)NC(=O)CNC1=O)C(=O)NC(C(C)O)C(=O)N1CCCC1C(=O)N1CC(N)CC1C(=O)NC(CC(=O)O)C(=O)N2 (centres unmarked) [compound 62] | < 100
CC(C)CC1NC(=O)C(Cc2cnc[nH]2)NC(=O)C(Cc2c[nH]c3ccccc23)NC(=O)C(C)NC(=O)C2CSSCC(NC(=O)C(Cc3c[nH]c4ccccc34)NC(=O)C(C(C)C)NC(=O)C(CC(C)C)NC(=O)C(CCC(=O)O)NC(=O)CNC1=O)C(=O)NC(C(C)O)C(=O)N1CCCC1C(=O)N1CC(N)CC1C(=O)NC(CC(=O)O)C(=O)N2 (centres unmarked) [compound 63] | < 100
CC(C)C[C@@H]1NC(=O)[C@H](Cc2cnc[nH]2)NC(=O)[C@H](Cc2c[nH]c3ccccc23)NC(=O)[C@H](C)NC(=O)[C@@H]2CSSC[C@H](NC(=O)[C@H](Cc3c[nH]c4ccccc34)NC(=O)[C@H](C(C)C)NC(=O)[C@H](CC(C)C)NC(=O)[C@H](CCC(=O)N(C)C)NC(=O)CNC1=O)C(=O)N[C@@H]([C@@H](C)O)C(=O)N1CCC[C@@H]1C(=O)N1C[C@@H](N)C[C@H]1C(=O)N[C@@H](CC(=O)O)C(=O)N2 [compound 65] | < 100
CC(C)CC1NC(=O)C(Cc2cnc[nH]2)NC(=O)C(Cc2c[nH]c3ccccc23)NC(=O)C(C)NC(=O)C2CSSCC(NC(=O)C(Cc3c[nH]c4ccccc34)NC(=O)C(C(C)C)NC(=O)C(CC(C)C)NC(=O)C(CCC(=O)O)NC(=O)CNC1=O)C(=O)NC(C(C)O)C(=O)N1CCCC1C(=O)N1CC(N)CC1C(=O)NC(CC(=O)O)C(=O)N2 (centres unmarked) [compound 66] | < 100
CC(C)C[C@@H]1NC(=O)[C@H](C)NC(=O)CNC(=O)[C@H](CC(C)C)NC(=O)[C@H](Cc2cnc[nH]2)NC(=O)[C@H](Cc2c[nH]c3ccccc23)NC(=O)[C@H](C)NC(=O)[C@@H]2CSSC[C@H](NC(=O)[C@H](Cc3c[nH]c4ccccc34)NC(=O)[C@H](C(C)C)NC1=O)C(=O)N[C@@H]([C@@H](C)O)C(=O)N1CCC[C@@H]1C(=O)N1C[C@@H](N)C[C@H]1C(=O)N[C@@H](C)C(=O)N2 [compound 67] (cyclo(ACAWHLGALVWCT[dP][Pro(4S-NH2)]); disulfide 2-12) | < 100
CC(C)C[C@@H]1NC(=O)[C@H](Cc2cnc[nH]2)NC(=O)[C@H](Cc2c[nH]c3ccccc23)NC(=O)[C@H](C)NC(=O)[C@@H]2CSSC[C@H](NC(=O)[C@H](Cc3c[nH]c4ccccc34)NC(=O)[C@H](C(C)C)NC(=O)[C@H](CC(C)C)NC(=O)[C@H](CCC(=O)N(C)C)NC(=O)CNC1=O)C(=O)N[C@@H]([C@@H](C)O)C(=O)N1CCC[C@@H]1C(=O)N1C[C@@H](N)C[C@H]1C(=O)N[C@@H](C)C(=O)N2 [compound 68] | < 100
CC(C)CC1NC(=O)C(Cc2cnc[nH]2)NC(=O)C(Cc2c[nH]c3ccccc23)NC(=O)C(C)NC(=O)C2CSSCC(NC(=O)C(Cc3c[nH]c4ccccc34)NC(=O)C(C(C)C)NC(=O)C(CC(C)C)NC(=O)C(CCC(=O)N(C)C)NC(=O)CNC1=O)C(=O)NC(C(C)O)C(=O)N1CCCC1C(=O)N1CC(N)CC1C(=O)NC(CC(N)=O)C(=O)N2 (centres unmarked) [compound 69] (cyclo(GE(NMe2)LVWCTP[ξPro(4-NH2)]NCAWHL); disulfide 6-11; configuration not given here) | < 100
CC(C)C[C@@H]1NC(=O)[C@H](C)NC(=O)CNC(=O)[C@H](CC(C)C)NC(=O)[C@H](Cc2cnc[nH]2)NC(=O)[C@H](Cc2c[nH]c3ccccc23)NC(=O)[C@H](C)NC(=O)[C@@H]2CSSC[C@H](NC(=O)[C@H](Cc3c[nH]c4ccccc34)NC(=O)[C@H](C(C)C)NC1=O)C(=O)N[C@@H]([C@@H](C)O)C(=O)N1CCC[C@@H]1C(=O)N1C[C@@H](N)C[C@H]1C(=O)N[C@@H](CC(N)=O)C(=O)N2 [compound 70] (cyclo(ALVWCT[dP][Pro(4S-NH2)]NCAWHLG); disulfide 5-10) | < 100
C#CCCCC(=O)NC1CC2C(=O)NC(CC(=O)O)C(=O)NC3CSSCC(NC(=O)C(Cc4c[nH]c5ccccc45)NC(=O)C(C(C)C)NC(=O)C(CC(C)C)NC(=O)C(CCC(=O)O)NC(=O)CNC(=O)C(CC(C)C)NC(=O)C(Cc4cnc[nH]4)NC(=O)C(Cc4c[nH]c5ccccc45)NC(=O)C(C)NC3=O)C(=O)NC(C(C)O)C(=O)N3CCCC3C(=O)N2C1 (centres unmarked) [compound 75] | < 100
CC(C)C[C@@H]1NC(=O)[C@H](Cc2cnc[nH]2)NC(=O)[C@H](Cc2c[nH]c3ccccc23)NC(=O)[C@H](C)NC(=O)[C@@H]2CSSC[C@H](NC(=O)[C@H](Cc3c[nH]c4ccccc34)NC(=O)[C@H](C(C)C)NC(=O)[C@H](CC(C)C)NC(=O)[C@H](CCC(=O)O)NC(=O)CNC1=O)C(=O)N[C@@H]([C@@H](C)O)C(=O)N1CCC[C@@H]1C(=O)N1C[C@H](N)C[C@H]1C(=O)N[C@@H](CC(=O)O)C(=O)N2 [compound 95] | < 100
CC(C)C[C@@H]1NC(=O)[C@H](Cc2cnc[nH]2)NC(=O)[C@H](Cc2c[nH]c3ccccc23)NC(=O)[C@H](C)NC(=O)[C@@H]2CC/C=C/C[C@H](NC(=O)[C@H](Cc3c[nH]c4ccccc34)NC(=O)[C@H](C(C)C)NC(=O)[C@H](CC(C)C)NC(=O)[C@H](CCC(=O)O)NC(=O)CNC1=O)C(=O)N[C@@H]([C@@H](C)O)C(=O)N1CCC[C@@H]1C(=O)N1CCC[C@H]1C(=O)N[C@@H](CC(=O)O)C(=O)N2 [compound 99] | < 100

Source: patent US20260083851A1 (AVILAR THERAPEUTICS, INC., priority 2022, published 2026)
